Structures can show the parent of a compound that is named as a salt. Where two headings read alike, the source gives them in different places.
What was measured:
H3122 cells = assay: Cytotoxicity in non-small cell lung cancer cell line H3122 (SRB); format: cell-based, human
Description: Particularly, 4,000 H3122 cells containing ALK enzyme were distributed in each well of a 96 well plate together with 100 μl of DMEM (Dulbecco's Modified Eagle's Medium). One day later, the compound of the present invention was added to each well at different concentrations of […]. DMSO (dimethylsulfoxide) was added to the well that was not loaded with the compound by the same amount as the compound. Three days after the addition of the compound, DMEM was eliminated. 10% TCA (trichloroacetic acid) was added to fix the cells. The wells were washed with running water three times and the live cells were stained with SRB solution (1 sulphorodamine B). Then, OD was measured to calculate the population of the live cells.

H2228 cells = assay: cells; settings: Homo sapiens, NCI-H2228, 72 h
Ba/F3 EML4-ALK WT cells = assay: cells; format: cell-based, rodent; settings: read-out: Ba/F3 EML-ALK WT (IC50 μM)
[1] = Homo sapiens, NCI-H3122, 72 h, H3122 cells, three days, SRB
[2] = read-out: Cytotoxicity H2228 (GI50 μM), H2228 cells, three days, SRB

SMILES | GI50 (H3122 cells; [1]) | GI50 (H2228 cells; [2]) | also measured
COc1ccc(CCNC(C)C)cc1Nc1ncc(Cl)c(Nc2ccccc2S(=O)(=O)C(C)C)n1 [Example 15, 5-chloro-N2-(5-(2-(isopropylamino)ethyl)-2-methoxyphenyl)-N4-(2-(isopropylsulfonyl)phenyl)pyrimidine-2,4-diamine] | 1.1 µM | 0.78 µM | 
CCNC(=O)NCCc1ccc(OC)c(Nc2ncc(Cl)c(Nc3ccccc3S(=O)(=O)C(C)C)n2)c1 [Example 16, 1-(3-(5-chloro-4-(2-(isopropylsulfonyl)phenylamino)pyrimidine-2-ylamino)-4-methoxyphenethyl)-3-ethylurea] | 0.41 µM | 0.52 µM | 
COc1ccc(CCNC(=O)NC2CCCCC2)cc1Nc1ncc(Cl)c(Nc2ccccc2S(=O)(=O)C(C)C)n1 [Example 17, 1-(3-(5-chloro-4-(2-(isopropylsulfonyl)phenylamino)pyrimidine-2-ylamino)-4-methoxyphenethyl)-3-cyclohexylurea] | 0.88 µM | 2.3 µM | 
COc1ccc(CCNC(=O)Nc2ccccc2)cc1Nc1ncc(Cl)c(Nc2ccccc2S(=O)(=O)C(C)C)n1 [Example 18, 1-(3-(5-chloro-4-(2-(isopropylsulfonyl)phenylamino)pyrimidine-2-ylamino)-4-methoxyphenethyl)-3-phenylurea] | 3.6 µM | 4.9 µM | 
CNC(=S)NCCc1ccc(OC)c(Nc2ncc(Cl)c(Nc3ccccc3S(=O)(=O)C(C)C)n2)c1 [Example 19, 1-(3-(5-chloro-4-(2-(isopropylsulfonyl)phenylamino)pyrimidine-2-ylamino)-4-methoxyphenethyl)-3-methylthiourea] | 1.1 µM | 10 µM | 
COc1ccc(CCNC(=S)NCc2ccccc2)cc1Nc1ncc(Cl)c(Nc2ccccc2S(=O)(=O)C(C)C)n1 [Example 20, 1-benzyl-3-(3-(5-chloro-4-(2-(isopropylsulfonyl)phenylamino)pyrimidine-2-ylamino)-4-methoxyphenethyl)thiourea] | 0.31 µM | 0.42 µM | 
COc1ccc(CCN2CCCCC2)cc1Nc1ncc(Cl)c(Nc2ccccc2S(=O)(=O)C(C)C)n1 [Example 21, 5-chloro-N4-(2-(isopropylsulfonyl)phenyl)-N2-(2-methoxy-5-(2-(piperidine-1-yl)ethyl)phenyl)pyrimidine-2,4-diamine] |  |  | GI50 (H3122 cells): 0.06 µM; GI50 (H3122 cells; Homo sapiens, NCI-H3122, 72 h): ≤ 0.1 µM; GI50 (H2228 cells; read-out: Cytotoxicity H2228 (GI50 μM)): 0.08 µM
COc1ccc(CCN2CCOCC2)cc1Nc1ncc(Cl)c(Nc2ccccc2S(=O)(=O)C(C)C)n1 [Example 22, 5-chloro-N4-(2-(isopropylsulfonyl)phenyl)-N2-(2-methoxy-5-(2-morpholinoethyl)phenyl)pyrimidine-2,4-diamine] | 0.27 µM | 0.46 µM | 
CCNC(=S)NCCc1ccc(OC)c(Nc2ncc(Cl)c(Nc3ccccc3S(=O)(=O)C(C)C)n2)c1 [Example 23, 1-(3-(5-chloro-4-(2-(isopropylsulfonyl)phenylamino)pyrimidine-2-ylamino)-4-methoxyphenethyl)-3-ethylthiourea] | 1.4 µM | 2.5 µM | 
COc1ccc(CCNc2ncccn2)cc1Nc1ncc(Cl)c(Nc2ccccc2S(=O)(=O)C(C)C)n1 [Example 25, 5-chloro-N4-(2-(isopropylsulfonyl)phenyl)-N2-(2-methoxy-5-(2-(pyrimidine-2-ylamino)ethyl)phenyl)pyrimidine-2,4-diamine] | 1.3 µM | 1.5 µM | 
COC(=O)CNCCc1ccc(OC)c(Nc2ncc(Cl)c(Nc3ccccc3S(=O)(=O)C(C)C)n2)c1 [Example 26, methyl 2-(3-(5-chloro-4-(2-(isopropylsulfonyl)phenylamino)pyrimidine-2-ylamino)-4-methoxyphenethylamino)acetate] | 0.14 µM | 0.42 µM | 
COc1ccc(CCNCC(=O)O)cc1Nc1ncc(Cl)c(Nc2ccccc2S(=O)(=O)C(C)C)n1 [Example 27, 2-(3-(5-chloro-4-(2-(isopropylsulfonyl)phenylamino)pyrimidine-2-ylamino)-4-methoxyphenethylamino)acetic acid] | 0.42 µM | 0.51 µM | 
COc1ccc(CNC(=O)C(F)(F)F)cc1Nc1ncc(Cl)c(Nc2ccccc2S(=O)(=O)C(C)C)n1 [Example 28, N-(3-((5-chloro-4-((2-(isopropylsulfonyl)phenyl)amino)pyrimidine-2-yl)amino)-4-methoxybenzyl)-2,2,2-trifluoroacetamide] | 0.82 µM | 0.98 µM | 
COc1ccc(CN)cc1Nc1ncc(Cl)c(Nc2ccccc2S(=O)(=O)C(C)C)n1 [Example 29, N2-(5-(aminomethyl)-2-methoxyphenyl)-5-chloro-N4-(2-(isopropylsulfonyl)phenyl)pyrimidine-2,4-diamine] | 0.1 µM | 0.14 µM | 
COc1ccc(CCNC(=O)C(F)(F)F)cc1Nc1ncc(Cl)c(Nc2ccccc2S(=O)(=O)C(C)C)n1 [Example 30, N-(3-(5-chloro-4-(2-(isopropylsulfonyl)phenylamino)pyrimidine-2-ylamino)-4-methoxyphenethyl)-2,2,2-trifluoroacetamide] | 0.48 µM | 0.76 µM | 
CC(C)Oc1ccc(CCN)cc1Nc1ncc(Cl)c(Nc2ccccc2S(=O)(=O)C(C)C)n1 [Example 31, N2-(5-(2-aminoethyl)-2-isopropoxyphenyl)-5-chloro-N4-(2-(isopropylsulfonyl)phenyl)pyrimidine-2,4-diamine] | 0.7 µM | 0.51 µM | 
COc1ccc(CCN)cc1Nc1ncc(Cl)c(Nc2ccc(F)cc2S(=O)(=O)C(C)C)n1 [Example 32, N2-(5-(2-aminoethyl)-2-methoxyphenyl)-5-chloro-N4-(4-fluoro-2-(isopropylsulfonyl)phenyl)pyrimidine-2,4-diamine] | 0.71 µM | 0.64 µM | 
COc1ccc(CCN)cc1Nc1ncc(Cl)c(Nc2cc(F)ccc2S(=O)(=O)C(C)C)n1 [Example 33, N2-(5-(2-aminoethyl)-2-methoxyphenyl)-5-chloro-N4-(5-fluoro-2-(isopropylsulfonyl)phenyl)pyrimidine-2,4-diaminehydrochloride] |  | 10 µM | GI50 (H3122 cells; H3122 cells, three days, SRB): 10 µM
COc1ccc(CCN)cc1Nc1ncc(Cl)c(Nc2c(F)cccc2S(=O)(=O)C(C)C)n1 [Example 34, N2-(5-(2-aminoethyl)-2-methoxyphenyl)-5-chloro-N4-(2-fluoro-6-(isopropylsulfonyl)phenyl)pyrimidine-2,4-diaminehydrochloride] | 2.2 µM | 2.3 µM | 
COc1ccc(C(C)(C)CN)cc1Nc1ncc(Cl)c(Nc2ccccc2S(=O)(=O)C(C)C)n1 [Example 35, N2-(5-(1-amino-2-methylpropane-2-yl)-2-methoxyphenyl)-5-chloro-N4-(2-(isopropylsulfonyl)phenyl)pyrimidine-2,4-diamine] | 1.6 µM | 1.6 µM | 
COc1ccc(C(C)(C)CN)cc1Nc1ncc(Cl)c(Nc2ccc(F)cc2S(=O)(=O)C(C)C)n1 [Example 36, N2-(5-(1-amino-2-methylpropane-2-yl)-2-methoxyphenyl)-5-chloro-N4-(4-fluoro-2-(isopropylsulfonyl)phenyl)pyrimidine-2,4-diamine] |  | 10 µM | GI50 (H3122 cells; H3122 cells, three days, SRB): 10 µM
COc1ccc(C(C)(C)CN)cc1Nc1ncc(Cl)c(Nc2cc(F)ccc2S(=O)(=O)C(C)C)n1 [Example 37, N2-(5-(1-amino-2-methylpropane-2-yl)-2-methoxyphenyl)-5-chloro-N4-(5-fluoro-2-(isopropylsulfonyl)phenyl)pyrimidine-2,4-diamine] |  | 10 µM | GI50 (H3122 cells; H3122 cells, three days, SRB): 10 µM
COc1ccc(C(C)(C)CN)cc1Nc1ncc(Cl)c(Nc2c(F)cccc2S(=O)(=O)C(C)C)n1 [Example 38, N2-(5-(1-amino-2-methylpropane-2-yl)-2-methoxyphenyl)-5-chloro-N4-(2-fluoro-6-(isopropylsulfonyl)phenyl)pyrimidine-2,4-diamine] |  | 10 µM | GI50 (H3122 cells; H3122 cells, three days, SRB): 10 µM
COc1cc(CC#N)c(C)cc1Nc1ncc(Cl)c(Nc2ccccc2S(=O)(=O)C(C)C)n1 [Example 53, 2-(4-((5-chloro-4-((2-(isopropylsulfonyl)phenyl)amino)pyrimidine-2-yl)amino)-5-methoxy-2-methylphenyl)acetonitrile] | 0.074 µM |  | IC50 (Ba/F3 EML4-ALK WT cells; Ba/F3 EML4-ALK): ≤ 0.1 µM; IC50 (Ba/F3 EML4-ALK WT cells): 0.061 µM
COc1cc(C(C)(C)C#N)c(C)cc1Nc1ncc(Cl)c(Nc2ccccc2S(=O)(=O)C(C)C)n1 [Example 54, 2-(4-((5-chloro-4-((2-(isopropylsulfonyl)phenyl)amino)pyrimidine-2-yl)amino)-5-methoxy-2-methylphenyl)-2-methylpropanenitrile] | 0.25 µM |  | IC50 (Ba/F3 EML4-ALK WT cells; Ba/F3 EML4-ALK): 0.25 µM
COc1cc(C(C)(C)NC=O)c(C)cc1Nc1ncc(Cl)c(Nc2ccccc2S(=O)(=O)C(C)C)n1 [Example 61, N-(2-(4-((5-chloro-4-((2-(isopropylsulfonyl)phenyl)amino)pyrimidine-2-yl)amino)-5-methoxy-2-methylphenyl)propane-2-yl)formamide] | 0.052 µM |  | IC50 (Ba/F3 EML4-ALK WT cells; Ba/F3 EML4-ALK): 0.024 µM
COc1cc(-c2ccccc2)c(CCN)cc1Nc1ncc(Cl)c(Nc2ccccc2S(=O)(=O)C(C)C)n1 [Example 67] | 0.23 µM |  | IC50 (Ba/F3 EML4-ALK WT cells; Ba/F3 EML4-ALK): 0.11 µM
COc1cc(CNC=O)c(C)cc1Nc1ncc(Cl)c(Nc2ccccc2S(=O)(=O)C(C)C)n1 [Example 71, N-(4-((5-chloro-4-((2-(isopropylsulfonyl)phenyl)amino)pyrimidine-2-yl)amino)-5-methoxy-2-methylbenzyl)formamide] |  |  | IC50 (Ba/F3 EML4-ALK WT cells; Ba/F3 EML4-ALK): 0.015 µM
